This is an account of results in patent publication US12655156B2, “Oxadiazolopyrazines and oxadiazolopyridines useful as mitochondrial uncouplers” (Virginia Tech Intellectual Properties, Inc., priority 2018, dated 2026).

The test system of the first test is whole cells (NMuLi, C2C12, and L6 cells, isolated cardiomyocytes, human primary fibroblasts). Kind of test: Oxygen consumption rate (OCR) in whole cells, Seahorse XF-24 Flux Analyzer. As to conditions: increase in OCR; binned EC50 values. Format: cell-based. In outline: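 NMuLi, C2C12 and L6 cells (3.5×10^4/well), cardiomyocytes (4×10^4/well) and human primary fibroblasts (1.1×10^4/well) adhered 24 h, then equilibrated 30 min at 37° C in unbuffered DMEM with pyruvate and glutamine, pH 7.4. Compounds injected during run; OCR read over 2 min periods. EC50 for OCR increase, binned.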
What is called EC50 is the concentration giving half of the maximal effect. Higher therefore signals lower potency in that assay. In turn, `Oc1nc2nonc2nc1Nc1ccc(-c2ccc(F)cc2)cc1` [1-112, 6-((4′-fluoro-[1,1′-biphenyl]-4-yl)amino)-[1,2,5]oxadiazolo[3,4-b]pyrazin-5-ol] gave an EC50 of at most 5 µM.

For `CCCC#Cc1ccc(Nc2nc3nonc3nc2O)c(OC(F)(F)F)c1` [1-64, 6-((4-(Pent-1-yn-1-yl)-2-(trifluoromethoxy)phenyl)amino)-[1,2,5]oxadiazolo[3,4-b]pyrazin-5-ol], the EC50 is at most 5 µM.

The molecule `Oc1nc2nonc2nc1Nc1ccc(-c2ccc(OC(F)(F)F)cc2)cc1` [1-105, 6-((4′-(trifluoromethoxy)-[1,1′-biphenyl]-4-yl)amino)-[1,2,5]oxadiazolo[3,4-b]pyrazin-5-ol] returned an EC50 of 5 to 20 µM.

Molecule `Oc1nc2nonc2nc1Nc1cc(C(F)(F)F)cc(C(F)(F)F)c1` [1-34, 6-((3,5-Bis(trifluoromethyl)phenyl)amino)-[1,2,5]oxadiazolo[3,4-b]pyrazin-5-ol] had a half-maximal effective concentration (EC50) of 5 to 20 µM.

As for `Oc1nc2nonc2nc1Nc1ccccc1OC(F)(F)F` [1-8, 6-((2-(Trifluoromethoxy)phenyl)amino)-[1,2,5]oxadiazolo[3,4-b]pyrazin-5-ol], the concentration for a half-maximal effect (EC50) is at most 5 µM.

For the molecule `Cc1cc(OC(F)(F)F)ccc1Nc1nc2nonc2nc1O` [1-32, 6-((2-Methyl-4-(trifluoromethoxy)phenyl)amino)-[1,2,5]oxadiazolo[3,4-b]pyrazin-5-ol], the EC50 is at most 5 µM.

For `O=C(COc1cccc(Nc2nc3nonc3nc2O)c1)c1ccc(OC(F)(F)F)cc1` [1-98, 2-(3-((6-hydroxy-[1,2,5]oxadiazolo[3,4-b]pyrazin-5-yl)amino)phenoxy)-1-(4-(trifluoromethoxy)phenyl)ethan-1-one], the EC50 was 5 to 20 µM.

Take `Oc1nc2nonc2nc1Nc1ccc(-c2cc(F)cc(F)c2)cc1` [1-121, 6-((3′,5′-difluoro-[1,1′-biphenyl]-4-yl)amino)-[1,2,5]oxadiazolo[3,4-b]pyrazin-5-ol]: the EC50 is at most 5 µM.

`CCCCCCc1ccc(Nc2nc3nonc3nc2O)c(OC(F)(F)F)c1` [1-70, 6-((4-hexyl-2-(trifluoromethoxy)phenyl)amino)-[1,2,5]oxadiazolo[3,4-b]pyrazin-5-ol] had an EC50 of 5 to 20 µM.

`Oc1nc2nonc2nc1Nc1ccc(OC(F)(F)F)c(Cl)c1` [1-24, 6-((3-Chloro-4-(trifluoromethoxy)phenyl)amino)-[1,2,5]oxadiazolo[3,4-b]pyrazin-5-ol] came in with an EC50 of at most 5 µM.

Molecule `Oc1nc2nonc2nc1Nc1ccc(C(F)(F)F)c(F)c1` [1-42, 6-((3-Fluoro-4-(trifluoromethyl)phenyl)amino)-[1,2,5]oxadiazolo[3,4-b]pyrazin-5-ol] returned an EC50 of 5 to 20 µM.

In turn, `O=[N+]([O-])c1cc(Nc2nc3nonc3nc2O)ccc1OC(F)(F)F` [1-40, 6-((3-Nitro-4-(trifluoromethoxy)phenyl)amino)-[1,2,5]oxadiazolo[3,4-b]pyrazin-5-ol] displayed an EC50 of over 20 µM.

On to `N#Cc1cc(-c2ccc(Nc3nc4nonc4nc3O)cc2)ccc1F` [1-129, 4-fluoro-4′-((6-hydroxy-[1,2,5]oxadiazolo[3,4-b]pyrazin-5-yl)amino)-[1,1′-biphenyl]-3-carbonitrile], for which the EC50 was 5 to 20 µM.

`Oc1nc2nonc2cc1Nc1ccc(C(F)(F)F)cc1` [1-242, 6-((4-(trifluoromethyl)phenyl)amino)-[1,2,5]oxadiazolo[3,4-b]pyridin-5-ol]: the concentration giving a half-maximal response (EC50) is over 20 µM.

In turn, `Oc1nc2nonc2nc1Nc1ccc(-c2ccc(F)cc2)c(F)c1` [1-125, 6-((2,4′-difluoro-[1,1′-biphenyl]-4-yl)amino)-[1,2,5]oxadiazolo[3,4-b]pyrazin-5-ol] showed an EC50 of at most 5 µM.

In turn, `Oc1nc2nonc2nc1Nc1cc(C(F)(F)F)ccc1F` [1-17, 6-((2-Fluoro-5-(trifluoromethyl)phenyl)amino)-[1,2,5]oxadiazolo[3,4-b]pyrazin-5-ol] displayed an EC50 of 5 to 20 µM.

As for `O=[N+]([O-])c1cccc(Nc2nc3nonc3nc2O)c1` [1-206, 6-((3-nitrophenyl)amino)-[1,2,5]oxadiazolo[3,4-b]pyrazin-5-ol], the EC50 was over 20 µM.

Take `Oc1nc2nonc2nc1Nc1ccc(C(F)(F)F)cc1F` [1-16, 6-((2-Fluoro-4-(trifluoromethyl)phenyl)amino)-[1,2,5]oxadiazolo[3,4-b]pyrazin-5-ol]: the EC50 was at most 5 µM.

Regarding `Oc1nc2nonc2nc1Nc1ccc(OCc2ccccc2)cc1` [1-86, 6-((4-(benzyloxy)phenyl)amino)-[1,2,5]oxadiazolo[3,4-b]pyrazin-5-ol], the EC50 is at most 5 µM.

Take `CCc1ccc(Nc2nc3nonc3nc2O)cc1` [1-61, 6-((4-Ethylphenyl)amino)-[1,2,5]oxadiazolo[3,4-b]pyrazin-5-ol]: the EC50 fell in the range of 5 to 20 µM.

`Oc1nc2nonc2nc1Nc1ccc(OCCCC(F)(F)F)c(C(F)(F)F)c1` [1-100, 6-((4-(4,4,4-trifluorobutoxy)-3-(trifluoromethyl)phenyl)amino)-[1,2,5]oxadiazolo[3,4-b]pyrazin-5-ol] came in with an EC50 of at most 5 µM.

`Oc1nc2nonc2cc1Nc1cccc(OC(F)(F)F)c1` [1-229, 6-((3-(trifluoromethoxy)phenyl)amino)-[1,2,5]oxadiazolo[3,4-b]pyridin-5-ol]: the EC50 was 5 to 20 µM.

`Oc1nc2nonc2cc1Nc1cccc(C(F)(F)F)c1F` [1-232, 6-((2-fluoro-3-(trifluoromethyl)phenyl)amino)-[1,2,5]oxadiazolo[3,4-b]pyridin-5-ol] registered an EC50 of over 20 µM.

On to `Oc1nc2nonc2nc1Nc1ccc(C(F)(F)F)nc1` [1-208, 6-((6-(trifluoromethyl)pyridin-3-yl)amino)-[1,2,5]oxadiazolo[3,4-b]pyrazin-5-ol], for which the EC50 was over 20 µM.

Turning to `Oc1nc2nonc2nc1Nc1ccc(OCC(F)(F)F)c(F)c1` [1-90, 6-((3-Fluoro-4-(2,2,2-trifluoroethoxy)phenyl)amino)-[1,2,5]oxadiazolo[3,4-b]pyrazin-5-ol], the EC50 lay in the range of 5 to 20 µM.

The molecule `Oc1nc2nonc2nc1NCc1ccc(Br)cc1` [1-77, 6-((4-bromobenzyl)amino)-[1,2,5]oxadiazolo[3,4-b]pyrazin-5-ol] showed an EC50 of over 20 µM.

Regarding `COc1nc2nonc2cc1Nc1ccc(-c2ccc(C(F)(F)F)nc2)cc1` [1-225, 5-methoxy-N-(4-(6-(trifluoromethyl)pyridin-3-yl)phenyl)-[1,2,5]oxadiazolo[3,4-b]pyridin-6-amine], the EC50 was over 20 µM.

Regarding `Oc1nc2nonc2nc1NCc1ccc(OC(F)(F)F)cc1` [1-80, 6-((4-(trifluoromethoxy)benzyl)amino)-[1,2,5]oxadiazolo[3,4-b]pyrazin-5-ol], the EC50 was over 20 µM.

In turn, `Oc1nc2nonc2nc1Nc1ccc(C(O)(C(F)(F)F)C(F)(F)F)cc1` [1-26, 6-((4-(1,1,1,3,3,3-Hexafluoro-2-hydroxypropan-2-yl)phenyl)amino)-[1,2,5]oxadiazolo[3,4-b]pyrazin-5-ol] showed an EC50 of over 20 µM.

In the case of `Oc1nc2nonc2nc1Nc1ccc(OC(F)(F)F)c(Br)c1` [1-39, 6-((3-Bromo-4-(trifluoromethoxy)phenyl)amino)-[1,2,5]oxadiazolo[3,4-b]pyrazin-5-ol], the EC50 is at most 5 µM.

In turn, `Oc1nc2nonc2nc1Nc1cccc(-c2ccc3c(c2)OC(F)(F)O3)c1` [1-126, 6-((3-(2,2-difluorobenzo[d][1,3]dioxol-5-yl)phenyl)amino)-[1,2,5]oxadiazolo[3,4-b]pyrazin-5-ol] had an EC50 of at most 5 µM.

As to `Oc1nc2nonc2nc1Nc1ccc(Br)cc1F` [1-43, 6-((4-Bromo-2-fluorophenyl)amino)-[1,2,5]oxadiazolo[3,4-b]pyrazin-5-ol], the EC50 is at most 5 µM.

`Oc1nc2nonc2nc1Nc1ccc(OC(F)(F)F)c(F)c1` [1-11, 6-((3-Fluoro-4-(trifluoromethoxy)phenyl)amino)-[1,2,5]oxadiazolo[3,4-b]pyrazin-5-ol] yielded an EC50 of at most 5 µM.

`Oc1nc2nonc2cc1Nc1ccc(OC(F)(F)F)cc1F` [1-251, 6-((2-fluoro-4-(trifluoromethoxy)phenyl)amino)-[1,2,5]oxadiazolo[3,4-b]pyridin-5-ol]: the EC50 is at most 5 µM.

For another test, the system named is humans.
Assay: not given
As to conditions: patients consuming ~300 mg/d, over several months, without changes in food intake; cited from earlier work.
Regarding `O=[N+]([O-])c1ccc(O)c([N+](=O)[O-])c1` [DNP, 2,4-dinitrophenol], the Average weight loss was 1.5 pounds per week.

The test system of a further test is Male C57BL/6J mice on western diet. Description: Diet induced obesity reversal mouse study. Format: in vivo. The settings on record: WD containing 1-112, ~60 mg/kg/day, after 28 days of WD. The source says:
FIGS. 2A-2C. Diet induced obesity reversal data, for mice given a regular chow diet, a Western diet, or a Western diet plus compound 1-112. FIG. 2A, Body mass versus time; FIG. 2B, fat mass (measured by EchoMRI) versus time; FIG. 2C, food intake (last 14 days) versus time.
Male C57BL/6J mice aged 3 months were assigned to either normal chow diet (Chow, n=5) or western diet (WD, n=10) for 28 days. After 28 days half of the WD group were switched to WD containing compound 1-112 at a concentration resulting in consumption of ˜60 mg/kg/day 1-112 (1-112 60 mpk). Body mass (A), fat mass (measured by EchoMRI (B)), and food intake (C, for the final 14 days) were recorded as indicated.
As to `Oc1nc2nonc2nc1Nc1ccc(-c2ccc(F)cc2)cc1` [1-112, 6-((4′-fluoro-[1,1′-biphenyl]-4-yl)amino)-[1,2,5]oxadiazolo[3,4-b]pyrazin-5-ol], the Body mass result is “lost body weight”; the “Fat mass (measured by EchoMRI)” value was “lost body weight and fat mass”.

The same test, now with this note: WD containing 1-112, ~60 mg/kg/day; final 14 days.
On to `Oc1nc2nonc2nc1Nc1ccc(-c2ccc(F)cc2)cc1` [1-112, 6-((4′-fluoro-[1,1′-biphenyl]-4-yl)amino)-[1,2,5]oxadiazolo[3,4-b]pyrazin-5-ol], for which the Food intake result was “without a significant change in food intake”.
